Values joined by “and” are separate entries in the source; they are usually repeats but may differ in a detail not shown here. Identical values can stand only once. “Also recorded” adds a separate entry of the source. Like-named read-outs stand apart in the source and are kept apart here.
Legend:
LcA (BoNT/A light chain) [1] = molecular target: T1, LcA (BoNT/A light chain) (Clostridium botulinum, UniProt P0DPI0); conditions: cited from earlier work
BoNT/A / LcA = conditions: cited from earlier work
LcA (BoNT/A light chain) [2] = molecular target: T1, LcA (BoNT/A light chain); format: biochemical; conditions: pH 7.4
LcA (BoNT/A light chain) [3] = molecular target: T1, LcA (BoNT/A light chain); format: biochemical
LcA (BoNT/A light chain) [4] = molecular target: T1, LcA (BoNT/A light chain); format: biochemical; remark: listed apart in the source
LcA (BoNT/A light chain) [5] = molecular target: T1, LcA (BoNT/A light chain)
LcA (BoNT/A light chain) [6] = molecular target: T1, LcA (BoNT/A light chain); remark: listed apart in the source
LcA (BoNT/A light chain) [7] = molecular target: T1, LcA (BoNT/A light chain); remark: listed apart in the source
LcA (BoNT/A light chain) [8] = molecular target: T1, LcA (BoNT/A light chain); conditions: cited from earlier work; remark: listed apart in the source

T1 sequence (P0DPI0 1-448 limits assumed): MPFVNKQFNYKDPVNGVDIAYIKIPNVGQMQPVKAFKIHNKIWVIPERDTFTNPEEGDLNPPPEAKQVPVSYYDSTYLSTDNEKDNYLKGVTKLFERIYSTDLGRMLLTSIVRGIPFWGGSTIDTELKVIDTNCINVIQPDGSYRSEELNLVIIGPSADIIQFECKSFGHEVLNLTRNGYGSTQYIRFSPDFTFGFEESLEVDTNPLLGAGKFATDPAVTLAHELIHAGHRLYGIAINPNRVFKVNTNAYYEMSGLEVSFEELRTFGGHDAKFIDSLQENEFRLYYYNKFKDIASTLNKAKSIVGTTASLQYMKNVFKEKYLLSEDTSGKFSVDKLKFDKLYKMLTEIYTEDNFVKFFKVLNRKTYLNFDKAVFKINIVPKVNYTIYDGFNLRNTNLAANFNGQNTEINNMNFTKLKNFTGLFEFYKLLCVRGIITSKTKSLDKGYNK

Q: For (FITC)-ATDRIDQANQRATK(DABCYL)nL-amide, which Km (LcA (BoNT/A light chain) [1]) is on record?
A: 19 µM

Q: What does the source list for SNRTRIDEAN[dnpK]RA[daciaC]RML?
A: Km (LcA (BoNT/A light chain) [1]): 10 µM; kcat (LcA (BoNT/A light chain) [1]): 7 s⁻¹

Q: Which “effect on the LcA reaction depending on concentration” value (BoNT/A / LcA) does the source give for `[Zn]` [zinc] here?
A: both stimulating and inhibitory

Q: What does the source list for `[Cl-].[Na+]` [NaCl, Sodium chloride]?
A: effect of NaCl on LcA activity, 66-mer substrate (LcA (BoNT/A light chain) [2]): stimulating effect; also recorded: The same was also observed when the 66-mer peptide was used as a substrate; effect of higher NaCl concentrations on LcA activity, full length SNAP25 substrate (LcA (BoNT/A light chain) [3]): decrease in LcA activity; effect of NaCl on LcA activity, full length SNAP25 substrate (LcA (BoNT/A light chain) [3]; pH 7.4): stimulating effect; also recorded: more than sevenfold; effect of NaCl on LcA activity, 17-mer substrate (LcA (BoNT/A light chain) [4]; pH 7.4): inhibitory effect; effect on BoNT activities (BoNT/A / LcA): inhibits BoNT activities; effect on BoNT/A activity (BoNT/A / LcA): inhibitory

Q: What does the source list for SNKTRIDEANQ-RATKML [17-mer]?
A: quality as LcA substrate (Km, kcat, kcat/Km) (LcA (BoNT/A light chain) [5]): poorest of all the three substrates; Km (LcA (BoNT/A light chain) [6]): 1500 µM; Vmax (LcA (BoNT/A light chain) [6]): 33.6 mM/min/mg; kcat (LcA (BoNT/A light chain) [6]): 28 s⁻¹; Km (LcA (BoNT/A light chain) [6]; pH 7.4): 1510 µM; kcat (LcA (BoNT/A light chain) [6]; pH 7.4): 28 s⁻¹ and 28 ± 3.5 s⁻¹; kcat/Km (LcA (BoNT/A light chain) [6]; pH 7.4): 0.019 µM/s; Km (LcA (BoNT/A light chain) [1]): 1000 µM; substrate conversion (LcA (BoNT/A light chain) [7]): 60–65%; substrate converted into products (LcA (BoNT/A light chain) [7]): 40%

Q: Which results are given for `O=C(O)CN(CCN(CC(=O)O)CC(=O)O)CC(=O)O` [EDTA, ethylenediaminetetraacetate]?
A: effect on BoNT / LcA activity (BoNT/A / LcA): inhibitor of LcA activity; effect on BoNT activities (BoNT/A / LcA): inhibits BoNT activities; effect on BoNT/A activity (BoNT/A / LcA): inhibitory

Q: For `Cl.NC(CO)(CO)CO` [tris.HCl], which “effect on BoNT / LcA activity” value (BoNT/A / LcA) is on record?
A: inhibitory

Q: What about the “effect on BoNT/A activity” value (BoNT/A / LcA) of the same compound?
A: inhibitory

Q: With `O[C@@H](CS)[C@@H](O)CS` (racemic) [DTT, dithiothreitol] as the compound, how does the “concentration for optimal LcA activity” value (LcA (BoNT/A light chain) [3]) read?
A: 4 mM

Q: What about the “effect of DTT on LcA activity, SNAP25 substrate” value (LcA (BoNT/A light chain) [3]; pH 7.4) of the same compound?
A: slight stimulation of LcA activity

Q: What about the “effect on kinetic constants or specific activity of LcA with the 17-mer substrate” value (LcA (BoNT/A light chain) [8]) of the same compound?
A: no effect

Q: And the “behavior of the new LcA preparation on adding BSA, ZnCl2 and DTT” value (LcA (BoNT/A light chain) [4])?
A: essentially same behavior

Q: What about the “effect of adding DTT and ZnCl2 to the 17-mer substrate reactions” value (LcA (BoNT/A light chain) [4]) of the same compound?
A: results identical to those without them

Q: What about the “effect of DTT on solubilized LcA activity” value (BoNT/A / LcA) of the same compound?
A: inhibited

Q: And the “effect on the LcA reaction depending on concentration” value (BoNT/A / LcA)?
A: both stimulating and inhibitory

Q: For zinc chloride [ZnCl2], which “concentration for optimal LcA activity” value (LcA (BoNT/A light chain) [3]) is on record?
A: 0.1 mM

Q: And the “effect of ZnCl2 on LcA activity, SNAP25 substrate” value (LcA (BoNT/A light chain) [3]; pH 7.4)?
A: slight stimulation of the activity; also recorded: activity remained above the control 100%

Q: What about the “effect on kinetic constants or specific activity of LcA with the 17-mer substrate” value (LcA (BoNT/A light chain) [8]) of the same compound?
A: no effect

Q: What about the “behavior of the new LcA preparation on adding BSA, ZnCl2 and DTT” value (LcA (BoNT/A light chain) [4]) of the same compound?
A: essentially same behavior

Q: And the “effect of adding DTT and ZnCl2 to the 17-mer substrate reactions” value (LcA (BoNT/A light chain) [4])?
A: results identical to those without them

— article PMC4000213 (PLoS ONE, 2014)
